# Data: patent US20020147196A1, “Composition and method for treating neuropathic pain” (priority 2001, published 2002)
# Columns and labels:
# Assay type in all cases: in vivo, rat
# [1] = tested on: CCI-induced tactile allodynia; experiment: CCI model of neuropathic pain: mechanical (tactile) allodynia assessed with Von Frey hair monofilaments
# Method: (§1) All experiments were performed using the chronic constriction injury (CCI) model of neuropathic pain in the rat. Under isoflurane anaesthesia, the common left sciatic nerve of male random hooded rats (180-220 g) was exposed at mid thigh level. Four ligatures of chromic gut (4.0) were tied loosely around the nerve with a 1 mm spacing between each. The wound was then closed and secured with suture clips. The surgical procedure was identical for the sham operated animals except the sciatic nerve was not ligated. The animals were allowed a period of 10 days to recover from the surgery before any behavioural testing began. The effect of the test compound on CCI-induced decrease in mechanical paw withdrawal threshold was measured using an algesymeter (Randall & Selitto, 1957). The presence of mechanical allodynia was assessed using Von Frey hair mono filaments (range: 4.19-84.96 g). The rats were lightly restrained and placed upon a metal grid floor, from below which the monofilaments were applied to the plantar surface of the hindpaws. The lowest monofilament to produce a withdrawal was the response recorded.
# (§2) All data were expressed as mean±s.e.mean. Statistical analysis was carried out to compare the difference between the drug treated group and vehicle treated groups using unpaired Student's t-test (P<0.05 considered significant).
# [2] = tested on: CCI-induced decrease in mechanical paw withdrawal threshold; experiment: chronic constriction injury (CCI) model of neuropathic pain: mechanical paw withdrawal threshold measured with an algesymeter; details: for known minimum effective dose in the CCI model: b.i.d. p.o., shown previously to have efficacy in the CCI model
# Method: as §1, §2
# [3] = observation of adverse side effects during chronic dosing in the CCI experiments
# Method: Lamotrigine (30 mgkg^−1 b.i.d. p.o.) was dosed chronically for a period of 12 days. The dose chosen was determined from previous “in-house” data and doses believed to be efficacious in the clinical treatment of neuropathic pain.
# Bupropion (10 mgkg^−1 b.i.d. p.o.) was dosed chronically for a period of 8 days. The dose chosen reflects both previous “in-house” data and that which is believed to be efficacious in the clinical treatment of neuropathic pain.
# [4] = bupropion 10 mgkg^−1 b.i.d. p.o., days 47-54
Compound,"reversal of tactile allodynia following cessation of treatment ([1]; bupropion 10 mgkg^−1 b.i.d. p.o., after cessation)","effect on tactile allodynia (Von Frey hair withdrawal threshold) during chronic dosing [1, 4]","day of maximal reversal of tactile allodynia ([1]; bupropion 10 mgkg^−1 b.i.d. p.o., days 47-54, last day of dosing)",known minimum effective dose in the CCI model [2],"effect on paw withdrawal thresholds in sham-operated rats ([2]; bupropion 10 mgkg^−1, first day of dosing only, 1 hour post dose, sham-operated rats)","reversal of the fall in paw withdrawal threshold back towards sham-operated levels after a single dose ([2]; bupropion 10 mgkg^−1, single dose)","reversal of paw withdrawal threshold during the chronic dosing period [2, 4]","time the reversal of paw withdrawal threshold was maintained following cessation of treatment [2, 4]",adverse side effects as a result of the surgery or chronic dosing schedule ([3]; bupropion 10 mgkg^−1 b.i.d. p.o. for 8 days),effect on CCI-induced tactile allodynia (Von Frey hair withdrawal threshold) during chronic dosing ([1]; lamotrigine 30 mgkg^−1 b.i.d. p.o.),"effect on tactile allodynia following cessation of treatment, compared to vehicle treated group ([1]; lamotrigine 30 mgkg^−1 b.i.d. p.o., after cessation)","reversal of the CCI-induced decrease in paw-withdrawal threshold to that of sham-operated animals ([2]; lamotrigine 30 mgkg^−1 twice daily p.o., days 13-24 post-operative)","post-operative day until which the analgesic effect was maintained following cessation of treatment ([2]; lamotrigine 30 mgkg^−1 twice daily p.o., dosing ended day 24)","post-operative day by which the decrease in paw-withdrawal threshold was fully reversed ([2]; lamotrigine 30 mgkg^−1 twice daily p.o., dosing from day 13 post-operative)",adverse side effects as a result of the surgery or chronic dosing schedule ([3]; lamotrigine 30 mgkg^−1 b.i.d. p.o. for 12 days)
CC(NC(C)(C)C)C(=O)c1cccc(Cl)c1 (stereo not shown) [bupropion],not maintained,some effect,54 days,10 mgkg^−1,small effect,immediate reversal,maintained throughout the chronic dosing period,4 days,No adverse side effects were observed,–,–,–,–,–,–
Nc1nnc(-c2cccc(Cl)c2Cl)c(N)n1 [lamotrigine],–,–,–,10 mgkg^−1,–,–,–,–,–,transient reversal,small reversal,fully reversed,37 day post-operative,≤ 16 days,No adverse side effects were observed
